Among the data in ChEMBL document CHEMBL1130061, “Discovery and biological activity of orally active peptidyl trifluoromethyl ketone inhibitors of human neutrophil elastase” (J Med Chem, 1997) are Reduction, Lw/Bw and Ki values, retold here.

Numbered stars: 1 amine (or outer) side, 2 acyl side, 3 side chain; on linkers, the order of the positions; unused ones are H or OH. Square brackets hold non-standard residues; d marks the D form. Peptide text beside a SMILES is read from it. * marks the point of attachment. ξ: configuration not given here. 4Abz = Nc1ccc(C(=O)O)cc1; CO = O=C([*:1])[*:2]; ξV = CC(C)C(N)C(=O)O; ξP = O=C(O)C1CCCN1; CF3 = FC(F)(F)*

Test [1] has as its system Mesocricetus auratus. The test is described as follows: Oral administration at a dose of 37.5 mg/kg 30 min prior to HNE and reduction in the number of white blood cells was reported.
The species entered for test [2] is Mesocricetus auratus. The test is described as follows: Reduction in wet lung weight relative to the body weight in hamsters.
For another test, the target named is T1, Neutrophil elastase (Homo sapiens, UniProt P08246).
T1 sequence (P08246 whole entry): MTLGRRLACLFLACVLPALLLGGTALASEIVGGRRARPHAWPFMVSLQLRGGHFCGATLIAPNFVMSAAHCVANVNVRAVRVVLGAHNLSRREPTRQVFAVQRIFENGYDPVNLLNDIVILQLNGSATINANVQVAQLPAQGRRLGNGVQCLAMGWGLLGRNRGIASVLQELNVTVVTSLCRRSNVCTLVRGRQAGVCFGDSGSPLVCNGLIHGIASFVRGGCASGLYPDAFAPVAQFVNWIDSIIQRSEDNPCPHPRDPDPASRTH
The test is described as follows: Inhibitory activity against Human Neutrophil Elastase by HNE-catalyzed hydrolysis of MeO-Suc-Ala-Ala-Pro-Val-pNa.

For test [3], the system named is Mesocricetus auratus. Description: Oral administration at a dose of 37.5 mg/kg 30 min prior to HNE (100 mg/hamster) and reduction in the number of white blood cells was reported.

For the compound `CC(C)C(NC(=O)C1CCCN1C(=O)[C@@H](NS(=O)(=O)C12CC3CC(CC(C3)C1)C2)C(C)C)C(=O)C(F)(F)F` (stereo not given in full), the Reduction with Mesocricetus auratus [1] is on record as 61%. The Lw/Bw in the test filed under Mesocricetus auratus [2] is -36. At Neutrophil elastase, this compound had a Ki of 1.2 nM.
On the same counts, the results for `COc1ccc(C(=O)N[C@H](C(=O)N2CCCC2C(=O)NC(C(=O)C(F)(F)F)C(C)C)C(C)C)cc1OC` (stereo not given in full) are 46%, 66 and 1.1 nM.
On the same counts, the results for `CC(C)C(NC(=O)C1CCCN1C(=O)[C@@H](NC(=O)Nc1ccc(C(=O)O)cc1)C(C)C)C(=O)C(F)(F)F` (stereo not given in full) ({4Abz-CO}-Val-[ξP]-[ξV]-CF3) are 48%, -1 and 10 nM.
For `CC(C)[C@H](NC(=O)Oc1ccc(F)cc1)C(=O)N1CCC[C@H]1C(=O)N[C@H](C(=O)C(F)(F)F)C(C)C`, the Reduction in the test with Mesocricetus auratus [3] is -67%. In the test filed under Mesocricetus auratus [2], the Lw/Bw turned out to be 63. The same compound registered an inhibition constant Ki at Neutrophil elastase of 0.63 nM.
In the same order, the values of `CC(C)C(NC(=O)C1CCCN1C(=O)[C@@H](NS(=O)(=O)c1ccc([N+](=O)[O-])cc1)C(C)C)C(=O)C(F)(F)F` (stereo not given in full) are -118%, -36 and 5.2 nM.
For the compound `CC(C)[C@H](NC(=O)c1ccccn1)C(=O)N1CCC[C@H]1C(=O)N[C@H](C(=O)C(F)(F)F)C(C)C`, the Reduction in the test with Mesocricetus auratus [1] amounted to 44%. The compound also registered a Lw/Bw in the test filed under Mesocricetus auratus [2] of 8. In addition, affinity on Neutrophil elastase was put at a Ki of 20 nM.
On the same counts, the results for `CC(C)C(NC(=O)C1CCCN1C(=O)[C@@H](NC(=O)c1ccc(C(=O)NS(C)(=O)=O)cc1)C(C)C)C(=O)C(F)(F)F` (stereo not given in full) are 43%, -9 and 4.2 nM.
In the same order, the values of `CC(C)[C@H](NC(=O)C(=O)O)C(=O)N1CCC[C@H]1C(=O)N[C@H](C(=O)C(F)(F)F)C(C)C` are 38%, 2 and 810 nM.
With `CC(C)[C@H](NC(=O)c1ccc(F)cc1)C(=O)N1CCC[C@H]1C(=O)N[C@H](C(=O)C(F)(F)F)C(C)C`, the Reduction in the test with Mesocricetus auratus [1] was determined as 22%. Further, in the test listed under Mesocricetus auratus [2], the Lw/Bw is 44. The Ki on Neutrophil elastase is 2.9 nM.
On the same counts, the results for `CC(C)C(NC(=O)C1CCCN1C(=O)[C@@H](NC(=O)c1ccc(S(C)(=O)=O)cc1)C(C)C)C(=O)C(F)(F)F` (stereo not given in full) are 58%, -16 and 2 nM.
Take `CC(C)C(NC(=O)C1CCCN1C(=O)[C@H](C(C)C)N(CCCc1ccccc1)CCCc1ccccc1)C(=O)C(F)(F)F.Cl` (stereo not given in full): the Reduction in the test with Mesocricetus auratus [3] is -39%. The compound further came in with a Lw/Bw in the test filed under Mesocricetus auratus [2] of -23. The same compound came in with a Ki at Neutrophil elastase of 1.7 nM.
On the same counts, the results for `CC(C)c1cc(C(C)C)c(S(=O)(=O)N[C@H](C(=O)N2CCCC2C(=O)NC(C(=O)C(F)(F)F)C(C)C)C(C)C)c(C(C)C)c1` (stereo not given in full) are -186%, -17 and 3.2 nM.
As to `Cc1ccc(C(=O)N[C@H](C(=O)N2CCC[C@H]2C(=O)N[C@H](C(=O)C(F)(F)F)C(C)C)C(C)C)cc1C`, the Reduction in the test on Mesocricetus auratus [1] was 55%. The Lw/Bw in the test listed under Mesocricetus auratus [2] is reported as 75. Further, the Ki on Neutrophil elastase came to 1 nM.
In the same order, the values of `CC(C)[C@H](NC(=O)c1cccnc1)C(=O)N1CCC[C@H]1C(=O)N[C@H](C(=O)C(F)(F)F)C(C)C` (HELM PEPTIDE1{[O=C(c1cccnc1)[*:2]].V.P.V.[FC(F)(F)[*:1]]}$$$$V2.0) are 23%, -6 and 7.8 nM.
In the same order, the values of `CC(C)C(NC(=O)C1CCCN1C(=O)[C@@H](NS(=O)(=O)c1c(F)c(F)c(F)c(F)c1F)C(C)C)C(=O)C(F)(F)F` (stereo not given in full) are 27%, -24 and 1.6 nM.
On to `CSc1ccc(C(=O)N[C@H](C(=O)N2CCCC2C(=O)NC(C(=O)C(F)(F)F)C(C)C)C(C)C)cc1` (stereo not given in full), for which the Reduction with Mesocricetus auratus [1] amounted to 36%. Further, the Lw/Bw in the test filed under Mesocricetus auratus [2] is on record as 20. On Neutrophil elastase, this compound returned a Ki of 2.3 nM.
On the same counts, the results for `CC(=O)Nc1ccc(S(=O)(=O)N[C@H](C(=O)N2CCCC2C(=O)NC(C(=O)C(F)(F)F)C(C)C)C(C)C)cc1` (stereo not given in full) are 32%, 2 and 55 nM.
In the same order, the values of `CC(C)C(NC(=O)C1CCCN1C(=O)[C@@H](NC(=O)c1ccc(Oc2ccccc2)cc1)C(C)C)C(=O)C(F)(F)F` (stereo not given in full) are 78%, 31 and 0.41 nM.
On the same counts, the results for `CC(C)C(NC(=O)C1CCCN1C(=O)[C@@H](NC(=O)c1cc2ccccc2cc1C(=O)O)C(C)C)C(=O)C(F)(F)F` (stereo not given in full) are 53%, 23 and 1.7 nM.
Turning to `CC(C)[C@H](NS(=O)(=O)C(F)(F)F)C(=O)N1CCC[C@H]1C(=O)N[C@H](C(=O)C(F)(F)F)C(C)C`, the Reduction in the test on Mesocricetus auratus [1] is listed as 17%. In the test listed under Mesocricetus auratus [2], this compound returned a Lw/Bw of 20. For the same compound, on Neutrophil elastase, the affinity corresponds to a Ki of 150 nM.
Regarding `CC(C)C(NC(=O)C1CCCN1C(=O)[C@@H](NS(=O)(=O)c1ccc2ccccc2c1)C(C)C)C(=O)C(F)(F)F` (stereo not given in full), the Reduction in the test with Mesocricetus auratus [1] is reported as 20%. The compound further returned an inhibition constant (Ki) at Neutrophil elastase of 2.7 nM.
For the compound `CCCN(CC(=O)N[C@H](C(=O)N1CCC[C@H]1C(=O)N[C@H](C(=O)C(F)(F)F)C(C)C)C(C)C)C(C)=O` (HELM PEPTIDE1{[ac].[CCCN(CC(=O)[*:2])[*:1]].V.P.V.[FC(F)(F)[*:1]]}$$$$V2.0), the Reduction in the test on Mesocricetus auratus [1] came out at 78%. This compound also registered a Lw/Bw in the test listed under Mesocricetus auratus [2] of 24. In addition, on Neutrophil elastase, the affinity corresponds to a Ki of 2 nM.
Regarding `CC(C)[C@H](NC(=O)OCc1ccccc1)C(=O)N1CCC[C@H]1C(=O)N[C@H](C(=O)C(F)(F)F)C(C)C` (HELM PEPTIDE1{[O=C(OCc1ccccc1)[*:2]].V.P.V.[FC(F)(F)[*:1]]}$$$$V2.0), in the test with Mesocricetus auratus [1], the Reduction was found to be 38%. In the test filed under Mesocricetus auratus [2], the Lw/Bw was determined as 53.
Consider `CC(C)[C@H](NC(=O)C(F)(F)F)C(=O)N1CCC[C@H]1C(=O)N[C@H](C(=O)C(F)(F)F)C(C)C` (HELM PEPTIDE1{[O=C(C(F)(F)F)[*:2]].V.P.V.[FC(F)(F)[*:1]]}$$$$V2.0), for which the Reduction with Mesocricetus auratus [1] turned out to be 91%. Moreover, the Lw/Bw in the test filed under Mesocricetus auratus [2] stood at 67. Further, the Ki at Neutrophil elastase amounted to 15 nM.
In the same order, the values of `CC(C)[C@H](NC(=O)c1ccc(O)cc1)C(=O)N1CCC[C@H]1C(=O)N[C@H](C(=O)C(F)(F)F)C(C)C` are 28%, 35 and 3.9 nM.
As to `CC(C)C(NC(=O)C1CCCN1C(=O)[C@@H](NC(=O)c1ccc(C(=O)NCCN(C)C)cc1)C(C)C)C(=O)C(F)(F)F` (stereo not given in full), the Reduction with Mesocricetus auratus [1] stood at 71%. The Lw/Bw in the test filed under Mesocricetus auratus [2] is 20. Further, at Neutrophil elastase, the affinity corresponds to a Ki of 5.4 nM.
In the same order, the values of `CC(C)C(NC(=O)C1CCCN1C(=O)[C@@H](NC(=O)c1ccc([N+](=O)[O-])cc1)C(C)C)C(=O)C(F)(F)F` (stereo not given in full) are 4%, 54 and 1.2 nM.
In the same order, the values of `CC(C)C(NC(=O)C1CCCN1C(=O)[C@@H](NS(=O)(=O)c1ccc(Cl)cc1)C(C)C)C(=O)C(F)(F)F` (stereo not given in full) are 7%, -41 and 3.3 nM.
On the same counts, the results for `CC(C)C(NC(=O)C1CCCN1C(=O)[C@@H](NC(=O)/C=C/c1ccc(C(=O)O)cc1)C(C)C)C(=O)C(F)(F)F` (stereo not given in full) are 68%, 13 and 1.8 nM.
In the case of `CC(C)[C@H](NC(=O)Nc1ccc(F)cc1)C(=O)N1CCC[C@H]1C(=O)N[C@H](C(=O)C(F)(F)F)C(C)C`, the Reduction with Mesocricetus auratus [1] was 8%. This compound gave a Lw/Bw in the test listed under Mesocricetus auratus [2] of -3. The compound also displayed a Ki at Neutrophil elastase of 11 nM.
In the same order, the values of `CC(=O)N(CC(=O)N[C@H](C(=O)N1CCC[C@H]1C(=O)N[C@H](C(=O)C(F)(F)F)C(C)C)C(C)C)Cc1ccccc1` (HELM PEPTIDE1{[ac].[O=C(CN(Cc1ccccc1)[*:1])[*:2]].V.P.V.[FC(F)(F)[*:1]]}$$$$V2.0) are 36%, 20 and 0.96 nM.
On to `CC(C)C(NC(=O)c1ccc(C(=O)NS(=O)(=O)c2ccc(Br)cc2)cc1)C(=O)N1CCC[C@H]1C(=O)N[C@H](C(=O)C(F)(F)F)C(C)C` (stereo not given in full), for which the Reduction in the test on Mesocricetus auratus [1] came to 30%. This compound showed a Lw/Bw in the test filed under Mesocricetus auratus [2] of -0.5.
`COC(=O)c1ccc(C(=O)N[C@H](C(=O)N2CCCC2C(=O)NC(C(=O)C(F)(F)F)C(C)C)C(C)C)cc1` (stereo not given in full): the Reduction with Mesocricetus auratus [1] amounted to 56%. Besides, in the test filed under Mesocricetus auratus [2], the Lw/Bw is given as 49. The same compound yielded a Ki on Neutrophil elastase of 1.8 nM.
In the same order, the values of `CC(C)C(NC(=O)C1CCCN1C(=O)[C@@H](NC(=O)c1ccc(N(C)C)cc1)C(C)C)C(=O)C(F)(F)F` (stereo not given in full) are 0%, 36 and 2.5 nM.
In the same order, the values of `CC(C)C(NC(=O)C1CCCN1C(=O)[C@@H](NC(=O)c1ccc2ccccc2c1)C(C)C)C(=O)C(F)(F)F` (stereo not given in full) are 73%, 43 and 0.87 nM.
In the same order, the values of `COC(=O)c1cc(C(=O)N[C@H](C(=O)N2CCCC2C(=O)NC(C(=O)C(F)(F)F)C(C)C)C(C)C)cc(C(=O)OC)c1` (stereo not given in full) are 6%, 6 and 11 nM.
For the compound `CC(=O)Oc1cc(OC(C)=O)cc(C(=O)N[C@H](C(=O)N2CCCC2C(=O)NC(C(=O)C(F)(F)F)C(C)C)C(C)C)c1` (stereo not given in full), the Reduction in the test with Mesocricetus auratus [3] was -12%. The compound further registered a Ki at Neutrophil elastase of 60 nM.
`COc1cccc(OC)c1C(=O)N[C@H](C(=O)N1CCCC1C(=O)NC(C(=O)C(F)(F)F)C(C)C)C(C)C` (stereo not given in full): in the test with Mesocricetus auratus [1], the Reduction stood at 177%. In the test listed under Mesocricetus auratus [2], the Lw/Bw stood at 20. Besides, the inhibition constant (Ki) at Neutrophil elastase turned out to be 15 nM.

As usually defined, the Ki is the dissociation constant of the complex between target and ligand, obtained from inhibition or displacement.
